Literature values as cited in patent US10905730B2, “Phytocannabinoid topical compositions for releiving pain” (priority 2017, dated 2021).
Like-named read-outs stand apart in the source and are kept apart here.

In the case of `C=C(C)[C@@H]1CCC(C)=C[C@H]1c1c(O)cc(CCCCC)cc1O` [CBD, cannabidiol], the “solubility in organic solvents” value is listed as “soluble in organic solvents such as pentane”, the solubility in water is listed as “insoluble in water” and the chemical stability (acidic conditions) is listed as “cyclizes to THC”. The chemical stability (strongly basic media and presence of air) was “oxidized to a quinone”.
